Read-outs that look alike come from different tables or passages of the source.

Data set [1] in a line: Liver Microsome Stability Assay (mouse). The conditions noted are these: mouse liver microsomes, with NADPH, 1.0 uM compound.
Method: (§1) Stability of a compound was assessed in the presence of liver microsomes from various sources—mouse, rat, monkey and human liver microsomes. 1.0 uM compound, 0.4% DMSO in 0.1 M Potassium Phosphate with 1.0 mg/mL liver microsomes, were incubated at 37° C. with or without 1 mM NADPH. The samples were quenched at 0, and 30 minutes.
Data set [2] has as its system multiple myeloma cell line NCI-H929. Briefly: H929 Cell Viability Assay. Type of data set: cell-based, human. The conditions noted are these: Homo sapiens, NCI-H929, 48 h, NCI-H929 cells, Celltiter-Glo. In a few lines:
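NCI-H929 cells in RPMI 1640 with 10% FBS were treated with compound dilutions for 48 h at 37° C, 5% CO2. Viability was read by CellTiter-Glo luminescence. Undefined stereocentres denote stereoisomer mixtures.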

In data set [3] the test system is PD1-ss+10aa/Gaussia Luciferase. Briefly: Dox-Induced PD1-ss-Gluc Assay. Type of data set: cell-based. The conditions noted are these: 24 hr Dox induction, 293FRT/TO cells, read-out: 24 hr Dox Inducible PD1ssGluc 293FRT/TO: Mean IC50. In a few lines: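 The cell line was made by transfecting Flp-In 293 T-REx cells with a PD1 signal sequence+10aa–Gaussia luciferase fusion under T-REx control and selecting with hygromycin and blasticidin. Cells were seeded, and next day compound plus doxycycline was added at 37 °C, 5% CO2.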

Data set [4] is described as follows: Liver Microsome Stability Assay (monkey). The conditions noted are these: monkey liver microsomes, with NADPH, 1.0 uM compound.
Method: as §1
The test system of data set [5] is IL-2-FL/Gaussia Luciferase. Nature of the data set: Dox Induced IL2-FL-Gluc Assay. The conditions noted are these: for IC50: 24 hr Dox induction, 293FRT/TO cells, read-out: 24 hr Dox Inducible IL2FLGluc 293FRT/TO: Mean IC50; for 24 hr Dox Inducible IL2FLGluc 293FRT/TO: IL2/PD1: ratio of IL2FLGluc IC50 to PD1ssGluc IC50. Type of data set: cell-based. In a few lines:
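Stable Flp-In 293 T-REx cells carrying doxycycline-inducible full-length IL-2 (aa 1-153) fused to Gaussia luciferase, plated the day before assay. Compound dilutions added in medium containing doxycycline, incubated at 37 °C, 5% CO2. Undefined stereocentres mean data refer to stereoisomer mixtures.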

A short description of data set [6]: Liver Microsome Stability Assay (human). The conditions noted are these: human liver microsomes, with NADPH, 1.0 uM compound.
Method: as §1
The subject of data set [7] is TNFα-FL/Gaussia Luciferase. Nature of the data set: Dox Induced TNFα-FL-Gluc Assay. The class given is cell-based. The conditions noted are these: for IC50: 24 hr Dox induction, 293FRT/TO cells, read-out: 24 hr Dox Inducible TNFaFLGluc 293FRT/TO: Mean IC50; for 24 hr Dox Inducible TNFaFLGluc 293FRT/TO: TNF/PD1: ratio of TNFaFLGluc IC50 to PD1ssGluc IC50. In a few lines: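 Flp-In 293 T-REx cells stably carrying doxycycline-inducible full-length TNFα (aa 1-233) fused to Gaussia luciferase. Plated the day before, then treated with compound dilutions in doxycycline-containing medium at 37° C, 5% CO2.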

Data set [8] concerns HER3-ss+4aa/Gaussia Luciferase. Nature of the data set: Dox-Induced Her3-ss-Gluc Assay. The class given is cell-based. The conditions noted are these: 24 hr Dox induction, 293FRT/TO cells, read-out: 24 hr Dox Inducible Her3(ss + 4)Gluc 293FRT/TO: Mean IC50. In a few lines:
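Stable Flp-In 293 T-REx cells carried a doxycycline-inducible HER3 signal sequence (+4 aa) fused to Gaussia luciferase. Cells were plated the day before the assay. Compound dilutions in DMSO/media containing doxycycline were then added, and plates were incubated at 37 °C, 5% CO2.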

A short description of data set [9]: Liver Microsome Stability Assay (rat). The conditions noted are these: rat liver microsomes, with NADPH, 1.0 uM compound.
Method: as §1
Data set [10] has as its system multiple myeloma cell line U266B1. Nature of the data set: U266 Cell Viability Assay. The class given is cell-based, human. The conditions noted are these: Homo sapiens, U-266, 48 h, U266B1 cells, Celltiter-Glo. In a few lines: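 U266B1 multiple myeloma cells in RPMI 1640/10% FBS were treated with compound dilutions for 48 h at 37 °C, 5% CO2. Viability was measured by CellTiter-Glo luminescence; compounds drawn without stereochemistry were tested as stereoisomer mixtures.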

Setting [11] is: '<=>' given where both are I.A.

Take `N#CC[C@@H](O)Cn1cccc1C(=O)Nc1nc([C@H]2CCCN2c2ccccc2)cs1` [Compound C112, 1-((R)-3-cyano-2-hydroxypropyl)-N-(4-((R)-1-phenylpyrrolidin-2-yl)thiazol-2-yl)-1H-pyrrole-2-carboxamide]: the “Liver Microsome Stability (Multiple Species): Mouse - % Remaining after 30 min w/NADPH” value in [1] turned out to be 3.03%. Also, the figures for the concentration for a half-maximal effect (EC50) in data set [2] and in data set [10] were 20700 nM and greater than 25000 nM, respectively. Also, the IC50 in data set [3] (mean) is 545 nM; in data set [5] (mean), 2290 nM; in data set [7] (mean), 9740 nM; in data set [8] (mean) it was 2240 nM. Also, in data set [4], the “Liver Microsome Stability (Multiple Species): Monkey - % Remaining after 30 min w/NADPH” value is recorded as 13.1%. For the same compound, the “24 hr Dox Inducible IL2FLGluc 293FRT/TO: IL2/PD1” value in [5] (setting [11]) is recorded as 4.2. The “Liver Microsome Stability (Multiple Species): Human - % Remaining after 30 min w/NADPH” value in data set [6] was determined as 23.6%. For the same compound, the “24 hr Dox Inducible TNFaFLGluc 293FRT/TO: TNF/PD1” value in [7] (setting [11]) worked out at 17.9. In addition, the “Liver Microsome Stability (Multiple Species): Rat - % Remaining after 30 min w/NADPH” value in data set [9] was found to be 12.6%.

`CC(C)c1nc(/C=C/c2csc(NC(=O)c3cccn3Cc3ccncc3)n2)cn1C` [Compound B72, (E)-N-(4-(2-(2-isopropyl-1-methyl-1H-imidazol-4-yl)vinyl)thiazol-2-yl)-1-(pyridin-4-ylmethyl)-1H-pyrrole-2-carboxamide]: the “Liver Microsome Stability (Multiple Species): Mouse - % Remaining after 30 min w/NADPH” value in data set [1] was 0.03%. The EC50 in [2] and in data set [10] was greater than 25000 nM in each case. The IC50 in data set [3] was 7150 nM; in [5], greater than 25000 nM; in data set [7], greater than 25000 nM; in [8], 10600 nM. The “Liver Microsome Stability (Multiple Species): Monkey - % Remaining after 30 min w/NADPH” value in data set [4] came to 0.06%. In addition, the “24 hr Dox Inducible IL2FLGluc 293FRT/TO: IL2/PD1” value in data set [5] is greater than 3.5. Also, in data set [6], the “Liver Microsome Stability (Multiple Species): Human - % Remaining after 30 min w/NADPH” value is 0.95%. For the same compound, in data set [7], the “24 hr Dox Inducible TNFaFLGluc 293FRT/TO: TNF/PD1” value is greater than 3.50. Besides, in data set [9], the “Liver Microsome Stability (Multiple Species): Rat - % Remaining after 30 min w/NADPH” value came to 0.16%.

With `Cc1ccnc(N2CCC[C@@H]2c2csc(NC(=O)c3cccn3Cc3ccncc3)n2)c1` [Compound E63, (R)-N-(4-(1-(4-methylpyridin-2-yl)pyrrolidin-2-yl)thiazol-2-yl)-1-(pyridin-4-ylmethyl)-1H-pyrrole-2-carboxamide], in data set [1], the “Liver Microsome Stability (Multiple Species): Mouse - % Remaining after 30 min w/NADPH” value was 0.72%. In addition, the EC50 in [2] is 2970 nM; in [10], greater than 25000 nM. In addition, the IC50 is 64 nM in [3] (mean), 95.2 nM in data set [5] (mean), 704 nM in data set [7] (mean) and 97 nM in data set [8] (mean). In [4], the “Liver Microsome Stability (Multiple Species): Monkey - % Remaining after 30 min w/NADPH” value came to 0.32%. Further, the “24 hr Dox Inducible IL2FLGluc 293FRT/TO: IL2/PD1” value in data set [5] (setting [11]) is 1.5. Further, the “Liver Microsome Stability (Multiple Species): Human - % Remaining after 30 min w/NADPH” value in [6] came out at 0.02%. Besides, the “24 hr Dox Inducible TNFaFLGluc 293FRT/TO: TNF/PD1” value in data set [7] (setting [11]) stood at 11. The “Liver Microsome Stability (Multiple Species): Rat - % Remaining after 30 min w/NADPH” value in [9] amounted to 0.23%.

Turning to `CC(C)c1ccc(/C=C/c2csc(NC(=O)c3cccn3CC3CCOCC3)n2)nc1` [Compound D6, (E)-N-(4-(2-(5-isopropylpyridin-2-yl)vinyl)thiazol-2-yl)-1-((tetrahydro-2H-pyran-4-yl)methyl)-1H-pyrrole-2-carboxamide], the “Liver Microsome Stability (Multiple Species): Mouse - % Remaining after 30 min w/NADPH” value in data set [1] was found to be 0.09%. The EC50 in data set [2] stood at 8680 nM; in data set [10], 12300 nM. Also, the IC50 in [3] (mean) is 595 nM; in [5] (mean), greater than 25000 nM; in data set [7] (mean), greater than 25000 nM; in data set [8] (mean), 6200 nM. In data set [4], the “Liver Microsome Stability (Multiple Species): Monkey - % Remaining after 30 min w/NADPH” value is given as 0.04%. Further, the “24 hr Dox Inducible IL2FLGluc 293FRT/TO: IL2/PD1” value in [5] (setting [11]) was greater than 42. The “Liver Microsome Stability (Multiple Species): Human - % Remaining after 30 min w/NADPH” value in data set [6] is on record as 0.03%. Besides, the “24 hr Dox Inducible TNFaFLGluc 293FRT/TO: TNF/PD1” value in [7] (setting [11]) is recorded as greater than 42.0. In addition, in data set [9], the “Liver Microsome Stability (Multiple Species): Rat - % Remaining after 30 min w/NADPH” value was determined as 0.06%.

For `C[C@H](N)c1ccc(N2CCC[C@@H]2c2csc(NC(=O)c3cccn3Cc3ccncc3)n2)cc1` [Compound A71, N-(4-((R)-1-(4-((S)-1-aminoethyl)phenyl)pyrrolidin-2-yl)thiazol-2-yl)-1-(pyridin-4-ylmethyl)-1H-pyrrole-2-carboxamide], in data set [1], the “Liver Microsome Stability (Multiple Species): Mouse - % Remaining after 30 min w/NADPH” value was determined as 95.6%. Also, the results for the 50% effective concentration (EC50) in data set [2] and in [10] were 4410 nM and 7800 nM, respectively. In addition, the IC50 in data set [3] is 136 nM; in [5], 366 nM; in data set [7], 3700 nM; in data set [8] it was 148 nM. Besides, in data set [4], the “Liver Microsome Stability (Multiple Species): Monkey - % Remaining after 30 min w/NADPH” value stood at 36.1%. Further, the “24 hr Dox Inducible IL2FLGluc 293FRT/TO: IL2/PD1” value in [5] amounted to 2.7. The “Liver Microsome Stability (Multiple Species): Human - % Remaining after 30 min w/NADPH” value in data set [6] is recorded as 51.8%. Also, the “24 hr Dox Inducible TNFaFLGluc 293FRT/TO: TNF/PD1” value in data set [7] was found to be 27.2. Also, the “Liver Microsome Stability (Multiple Species): Rat - % Remaining after 30 min w/NADPH” value in data set [9] is recorded as 82.1%.

Take `O=C(Nc1nc([C@H]2CCCN2c2ccc(OC3CSC3)cc2)cs1)c1cccn1Cc1ccnc(F)c1` [Compound A157, (R)-1-((2-fluoropyridin-4-yl)methyl)-N-(4-(1-(4-(thietan-3-yloxy)phenyl)pyrrolidin-2-yl)thiazol-2-yl)-1H-pyrrole-2-carboxamide]: the “Liver Microsome Stability (Multiple Species): Mouse - % Remaining after 30 min w/NADPH” value in data set [1] is reported as 0.84%. In addition, the results for the 50% effective concentration (EC50) in data set [2] and in data set [10] were 1470 nM and greater than 25000 nM, respectively. For the same compound, the IC50 is 42.2 nM in [3], 52.2 nM in data set [5], 407 nM in data set [7] and 49.7 nM in [8]. In data set [4], the “Liver Microsome Stability (Multiple Species): Monkey - % Remaining after 30 min w/NADPH” value amounted to 13.2%. In data set [5], the “24 hr Dox Inducible IL2FLGluc 293FRT/TO: IL2/PD1” value worked out at 1.2. Besides, the “Liver Microsome Stability (Multiple Species): Human - % Remaining after 30 min w/NADPH” value in data set [6] amounted to 22.9%. Further, the “24 hr Dox Inducible TNFaFLGluc 293FRT/TO: TNF/PD1” value in data set [7] turned out to be 9.64. Also, the “Liver Microsome Stability (Multiple Species): Rat - % Remaining after 30 min w/NADPH” value in data set [9] is listed as 2.44%.

Regarding `CNCc1ccc(N2CCC[C@@H]2c2csc(NC(=O)c3cccn3Cc3ccncc3)n2)cc1` [Compound A49, (R)-N-(4-(1-(4-((methylamino)methyl)phenyl)pyrrolidin-2-yl)thiazol-2-yl)-1-(pyridin-4-ylmethyl)-1H-pyrrole-2-carboxamide], the “Liver Microsome Stability (Multiple Species): Mouse - % Remaining after 30 min w/NADPH” value in data set [1] was found to be 29.4%. Also, the results for the EC50 in data set [2] and in [10] were 9860 nM and 8120 nM, respectively. Moreover, the IC50 in data set [3] was 778 nM; in [5], 2220 nM; in [7], greater than 25000 nM; in data set [8] it was 1640 nM. Besides, the “Liver Microsome Stability (Multiple Species): Monkey - % Remaining after 30 min w/NADPH” value in data set [4] was found to be 0.94%. Also, in data set [5], the “24 hr Dox Inducible IL2FLGluc 293FRT/TO: IL2/PD1” value stood at 2.8. The “Liver Microsome Stability (Multiple Species): Human - % Remaining after 30 min w/NADPH” value in [6] was 1.94%. Moreover, the “24 hr Dox Inducible TNFaFLGluc 293FRT/TO: TNF/PD1” value in data set [7] is on record as greater than 32.1. Also, the “Liver Microsome Stability (Multiple Species): Rat - % Remaining after 30 min w/NADPH” value in data set [9] turned out to be 10.7%.

These data come from patent publication US20230286973A1, “PROTEIN SECRETION INHIBITORS” (KEZAR LIFE SCIENCES, priority 2020, published 2023).
